# Source: US11254700B2, “GSK-3β inhibitors and use thereof in methods of treatment” (UNIVERSITY OF HAWAII, priority 2017, dated 2022)
# “Also recorded” adds a separate entry of the source.
# Experiments:
# [1] = test system: TNFα, IL-2, IFN-γ, IL-4, IL-10; experiment: Serum cytokines; type: in vivo, mouse; conditions: APP/PS1 mice, vs model group
# Description: The backgrounds of all mice (APP/PS1 dual transgenic mice and wild-type mice with littermates) were C57/B6. Transgenic mice were randomly divided into three groups (n=20 for each group), and wild-type mice were used as controls (n=20). The control group and one group of transgenic mice (model group) were given sterilized ultrapure water, and the other two groups of transgenic mice received low- and high-dose Isoorientin (20 and 50 mg/kg, respectively) via intragastric administration for 60 days. Throughout the study-period, animals were housed in a controlled environment (temperature, 22° C.; humidity, 50-60%, 12-hour light/12-hour dark schedules), with free access to rodent chow and water. After a Morris water maze test, mice were perfused with cold phosphate-buffered saline (PBS), brain tissues were dissected and kept frozen at −80° C. until further analysis. […] T-cell-specific cytokines (Interferon-γ (IFN-γ), interleukin (IL)-2, IL-4, and IL-10) in mouse serum were also measured. Mouse Th17 Magnetic Bead Panel 96-Well Plate Assay was purchased from Millipore. The assay was performed in a 96-well plate and all reagents were prepared according to the Millipore instructions. Briefly, 200 μL of Wash Buffer was added into each well to pre-wet plate, Wash Buffer was decanted thoroughly and the plate was mixed on a plate shaker for 10 minutes at room temperature (25-27° C.). In accordance with the instructions of the kit, the appropriate reagents were added to the wells and the plate was sealed and incubated overnight at 4° C. in the dark. Plates were put on the magnetic support and each well was washed twice with 200 μl of wash buffer via a plate shaker at 450 rpm for 2 minutes at room temperature. After adding 5 μl of detection antibody to each well, the plate was sealed and incubated with agitation on a plate shaker for 1 hour at room temperature. […] Binding was assessed using a LUMINEX-200 instrument and xPONENT software. Serum samples were analyzed for IL4 and TNFα using a Mouse IL4 ELISA Kit and a Mouse TNFα ELISA Kit, respectively, according to the manufacturer's instructions. […]
# [2] = test system: SH-SY5Y cells treated with Aβ42 oligomers; experiment: Anti-Aβ42 neurotoxicity assay; type: cell-based, human
# Description: Human neuroblastoma SH-SY5Y cell line (Sigma-Aldrich, Saint Louis, Mo.) was cultured in DMEM/F12 (v/v 1:1) media supplemented with 2 mM glutamine, 10% heat-inactivated fetal bovine serum (FBS) and 1% antibiotics including penicillin and streptomycin. After reaching 70-80% confluence, cells were then subcultured on poly-L-lysine plates with 10 μM retinoic acid in a reduced serum media (1% FBS) to promote neuronal maturation and differentiation as described (Agholme, et al. (2010) J. Alzheimer's Dis. 20: 1069-1082). Cell cultures were incubated at 37° C. in a fully humidified atmosphere containing 5% CO2.
# The toxic oligomers of Aβ42 were prepared as described (Liang, et al. (2016) ACS Chem. Neurosci. 7:912-923). Briefly, lyophilized Aβ42 peptide was dissolved in hexafluoroisopropanol, dried under vacuum, and stored at −20° C. Immediately prior to use, the peptide residue was reconstituted in DMEM/F12 media to make a stock solution at 0.1 mM and incubated at 4° C. for 24 hours to form diffusible oligomers. Aβ42 oligomers at a final concentration of 10 μM were assayed for cell viability.
# SH-SY5Y cells were seeded at a density of 3×10^5 cells/mL in a 96-well plate in DMEM/F12 media containing 10 μM retinoic acid and 1% FBS to suppress cell proliferation. Cells were incubated under regular culture conditions for attachment. After 24 hours of plating, the cells were pretreated with different concentrations of test samples or the 0.2% DMSO as a vehicle control for 1 hour and then co-incubated with 10 μM Aβ42 for 72 hours. After the experimental treatment, the cells were subject to a […]® 96 AQueous One Solution Cell Proliferation […] Assay according to the manufacturer's instruction. […] Each data point was collected in triplicate of two independent experiments.
# [3] = biological target: GSK-3β (Homo sapiens, UniProt P49841); experiment: Kinase luminescent assay (ADP-Glo), GSK-3β inhibition; type: biochemical; conditions: 25 μM ATP, 1 hour, room temperature; mean of quadruplicate of two experiments; read-out: IC50 against GSK-3β
# Description: Kinase Luminescent Assay.
# Kinase inhibition was assessed with the ADP-Glo Kinase Assay. […] The reaction mixture was incubated for 1 hour at room temperature followed by the addition of the ADP-Glo′ reagents according to the manufacturer's protocol. The kinase inhibitor staurosporine was used at 1 μM as a reference control. Each data point was collected in quadruplicate of two independent experiments.
# [4] = test system: Aβ42; experiment: Brain Aβ42 by ELISA; type: in vivo, mouse; conditions: vs model group
# Description: The backgrounds of all mice (APP/PS1 dual transgenic mice and wild-type mice with littermates) were C57/B6. Transgenic mice were randomly divided into three groups (n=20 for each group), and wild-type mice were used as controls (n=20). The control group and one group of transgenic mice (model group) were given sterilized ultrapure water, and the other two groups of transgenic mice received low- and high-dose Isoorientin (20 and 50 mg/kg, respectively) via intragastric administration for 60 days. Throughout the study-period, animals were housed in a controlled environment (temperature, 22° C.; humidity, 50-60%, 12-hour light/12-hour dark schedules), with free access to rodent chow and water. […] For quantitation purposes, a highly specific and sensitive mouse Aβ42 ELISA kit was used (Invitrogen Corporation, Carlsbad, Calif.). Brain tissue protein was extracted by homogenizing about 100 mg brain tissue with an 8-fold mass quantity of cold 5 M guanidine-HCl and 50 mM Tris (pH 8.0), and incubating the homogenate at room temperature for 3.5 hours. […] Soluble and insoluble brain samples including cortex and hippocampus were analyzed for Aβ levels using the mouse Aβ42 ELISA kit, according to the manufacturer's instructions. […] The obtained values were corrected for the wet weight of each brain sample and expressed as μg/mg brain.
# Chain of GSK-3β (P49841 whole entry): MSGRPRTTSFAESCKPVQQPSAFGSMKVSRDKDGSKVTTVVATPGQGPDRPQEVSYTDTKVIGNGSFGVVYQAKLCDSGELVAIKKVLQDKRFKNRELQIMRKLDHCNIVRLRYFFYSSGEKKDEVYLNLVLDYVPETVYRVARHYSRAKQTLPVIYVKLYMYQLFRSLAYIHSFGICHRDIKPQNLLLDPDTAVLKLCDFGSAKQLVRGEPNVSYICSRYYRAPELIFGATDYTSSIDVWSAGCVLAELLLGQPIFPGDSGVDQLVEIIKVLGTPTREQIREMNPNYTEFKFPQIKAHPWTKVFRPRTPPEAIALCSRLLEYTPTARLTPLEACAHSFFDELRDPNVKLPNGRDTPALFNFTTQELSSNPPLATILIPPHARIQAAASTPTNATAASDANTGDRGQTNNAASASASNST
smiles,measurement,setting,value
"O=c1cc(-c2ccc(O)c(O)c2)oc2cc(O)c([C@@H]3O[C@H](CO)[C@@H](O)[C@H](O)[C@H]3O)c(O)c12 [Compound 1, isoorientin]",IFNγ in serum,[1],no statistical difference in the decrease
same,"anti-inflammatory factors (IL-4, IL-10) in serum",[1],significantly elevated
same,"pro-inflammatory factors (TNFα, IFNγ, IL-2) in serum",[1],slightly lower than those in the model group
same,EC50,"[2]; Homo sapiens, SH-SY5Y, 1 hour pretreatment, 10 μM Aβ42, 72 hours, read-out: neuroprotective potency EC50",47 µM
same,"effective dose, morphological protection from Aβ42 intoxication",[2]; morphological observations,200 μM
same,IC50,[3],185 µM
same,Aβ42 in brain (cortex+hippocampus),"[4]; high-dose group 50 mg/kg, oral, 60 days",significantly lower; also recorded: significant decrease
same,Aβ42 in brain (cortex+hippocampus),[4]; low-dose group,no statistically significant difference
